Data: PubChem BioAssay (NCI)
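Five concentrations, 48 hours, 96-well plates. TGI is the concentration that stops growth completely.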

How the values were obtained:
Test in all cases: inhibition of tumour cell growth, NCI panel, 48 h
[1] = tested on: K-562 leukemia
[2] = tested on: RXF 393 renal
[3] = tested on: 786-0 renal
[4] = tested on: SF-539 CNS
[5] = tested on: MDA-N
[6] = tested on: UO-31 renal
[7] = tested on: ACHN renal
[8] = tested on: A549 NSCLC
[9] = tested on: SK-MEL-28 melanoma
[10] = tested on: HCC-2998 colon
[11] = tested on: SNB-75 CNS
[12] = tested on: HCT-116 colon
[13] = tested on: MOLT-4 leukemia
[14] = tested on: NCI/ADR-RES ovarian
[15] = tested on: CCRF-CEM leukemia
[16] = tested on: UACC-257 melanoma
[17] = tested on: DU-145 prostate
[18] = tested on: HCT-15 colon
[19] = tested on: OVCAR-8 ovarian
[20] = tested on: HS 578T breast
[21] = tested on: SK-MEL-2 melanoma
[22] = tested on: KM12 colon
[23] = tested on: M14 melanoma
[24] = tested on: MCF7 breast
[25] = tested on: HOP-92 NSCLC
[26] = tested on: OVCAR-4 ovarian
[27] = tested on: SF-295 CNS
[28] = tested on: NCI-H522 lung
[29] = tested on: BT-549 breast
[30] = tested on: COLO 205 colon
[31] = tested on: MDA-MB-435
[32] = tested on: SW-620 colon
[33] = tested on: OVCAR-5 ovarian
[34] = tested on: NCI-H23 lung
[35] = tested on: SK-OV-3 ovarian
[36] = tested on: U251 CNS
[37] = tested on: NCI-H460 lung
[38] = tested on: SK-MEL-5 melanoma
[39] = tested on: SNB-19 CNS
[40] = tested on: HL-60(TB) leukemia
[41] = tested on: TK-10 renal
[42] = tested on: NCI-H226 lung
[43] = tested on: PC-3 prostate
[44] = tested on: OVCAR-3 ovarian
[45] = tested on: MDA-MB-231 breast
[46] = tested on: HOP-62 NSCLC
[47] = tested on: IGROV1 ovarian
[48] = tested on: SF-268 CNS
[49] = tested on: CAKI-1 renal
[50] = tested on: A498 renal
[51] = tested on: SR leukemia
[52] = tested on: SN12C renal
[53] = tested on: T-47D breast
[54] = tested on: LOX IMVI melanoma
[55] = tested on: HT29 colon
[56] = tested on: EKVX NSCLC
[57] = tested on: UACC-62 melanoma
[58] = tested on: MALME-3M melanoma
[59] = tested on: RPMI-8226 leukemia

## CC1=NN(C(=O)c2ccncc2)C(=O)C1
[1]
  TGI: > 100 µM
[2]
  TGI: > 100 µM
[3]
  TGI: > 100 µM
[4]
  TGI: > 100 µM
[5]
  TGI: > 100 µM
[6]
  TGI: > 100 µM
[7]
  TGI: > 100 µM
[8]
  TGI: > 100 µM
[9]
  TGI: > 100 µM
[10]
  TGI: > 100 µM
[11]
  TGI: > 100 µM
[12]
  TGI: > 100 µM
[13]
  TGI: > 100 µM
[14]
  TGI: > 100 µM
[15]
  TGI: > 100 µM
[16]
  TGI: > 100 µM
[17]
  TGI: > 100 µM
[18]
  TGI: > 100 µM
[19]
  TGI: > 100 µM
[20]
  TGI: > 100 µM
[21]
  TGI: > 100 µM
[22]
  TGI: > 100 µM
[23]
  TGI: > 100 µM
[24]
  TGI: > 100 µM
[25]
  TGI: > 100 µM
[26]
  TGI: > 100 µM
[27]
  TGI: > 100 µM
[28]
  TGI: > 100 µM
[29]
  TGI: > 100 µM
[30]
  TGI: > 100 µM
[31]
  TGI: > 100 µM
[32]
  TGI: > 100 µM
[33]
  TGI: > 100 µM
[34]
  TGI: > 100 µM
[35]
  TGI: > 100 µM
[36]
  TGI: > 100 µM
[37]
  TGI: > 100 µM
[38]
  TGI: > 100 µM
[39]
  TGI: > 100 µM
[40]
  TGI: > 100 µM
[41]
  TGI: > 100 µM
[42]
  TGI: > 100 µM
[43]
  TGI: > 100 µM
[44]
  TGI: > 100 µM
[45]
  TGI: > 100 µM
[46]
  TGI: > 100 µM
[47]
  TGI: > 100 µM
[48]
  TGI: > 100 µM
[49]
  TGI: > 100 µM
[50]
  TGI: > 100 µM
[51]
  TGI: > 100 µM
[52]
  TGI: > 100 µM
[53]
  TGI: > 100 µM
[54]
  TGI: > 100 µM
[55]
  TGI: > 100 µM
[56]
  TGI: > 100 µM
[57]
  TGI: > 100 µM
[58]
  TGI: > 100 µM

## COc1ccc(C2SCC(=O)N2c2ccc(-c3ccc(-n4c(-c5ccccc5)nc5ccccc5c4=O)cc3)cc2)cc1OC (stereo unspecified)
[1]
  TGI: 96 µM
[2]
  TGI: > 100 µM
[3]
  TGI: > 100 µM
[4]
  TGI: > 100 µM
[5]
  TGI: > 100 µM
[6]
  TGI: > 100 µM
[8]
  TGI: > 100 µM
[9]
  TGI: > 100 µM
[11]
  TGI: > 100 µM
[12]
  TGI: > 100 µM
[13]
  TGI: > 100 µM
[14]
  TGI: > 100 µM
[15]
  TGI: 92.5 µM
[16]
  TGI: > 100 µM
[17]
  TGI: > 100 µM
[18]
  TGI: > 100 µM
[59]
  TGI: > 100 µM
[19]
  TGI: > 100 µM
[20]
  TGI: > 100 µM
[22]
  TGI: 28.3 µM
[23]
  TGI: > 100 µM
[24]
  TGI: > 100 µM
[25]
  TGI: > 100 µM
[26]
  TGI: > 100 µM
[27]
  TGI: 33.5 µM
[29]
  TGI: 51.1 µM
[30]
  TGI: > 100 µM
[31]
  TGI: > 100 µM
[32]
  TGI: > 100 µM
[34]
  TGI: > 100 µM
[35]
  TGI: > 100 µM
[36]
  TGI: > 100 µM
[37]
  TGI: > 100 µM
[39]
  TGI: > 100 µM
[40]
  TGI: > 100 µM
[41]
  TGI: 83.9 µM
[42]
  TGI: > 100 µM
[43]
  TGI: > 100 µM
[44]
  TGI: > 100 µM
[45]
  TGI: > 100 µM
[46]
  TGI: 37.6 µM
[47]
  TGI: > 100 µM
[48]
  TGI: > 100 µM
[49]
  TGI: > 100 µM
[50]
  TGI: > 100 µM
[51]
  TGI: > 100 µM
[52]
  TGI: > 100 µM
[53]
  TGI: > 100 µM
[54]
  TGI: 51.5 µM
[55]
  TGI: > 100 µM
[56]
  TGI: > 100 µM
[57]
  TGI: > 100 µM
[58]
  TGI: > 100 µM
